# According to the supplement of paper PMC10307832:
# What was measured:
# Assay in all cases: relative viability (nuclei count vs DMSO), 5 days (fraction); higher = more cells survive
# Ibrutinib + Trametinib = compound: C=CC(=O)N1CCC[C@@H](n2nc(-c3ccc(Oc4ccccc4)cc3)c3c(N)ncnc32)C1 [Ibrutinib] + CC(=O)Nc1cccc(-n2c(=O)n(C3CC3)c(=O)c3c(Nc4ccc(I)cc4F)n(C)c(=O)c(C)c32)c1 [Trametinib] (partner 0.02 µM)
# Summary of the method: (§1)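 Relative viability equals treated-well nuclei counts divided by vehicle-well nuclei counts. Counts came from 4× images of lung cancer cell lines grown in 1536-well plates for 5 days after pin-tool dosing on the day after seeding. Dosing used one drug alone or a fixed anchor-drug dose plus five library-drug doses (not always all listed) in √10 steps, and values are medians of duplicate plates.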
# BMX-IN-1 + Dasatinib = compound: C=CC(=O)Nc1cc(-n2c(=O)ccc3cnc4ccc(-c5ccc(NS(C)(=O)=O)cc5)cc4c32)ccc1C [BMX-IN-1] + Cc1nc(Nc2ncc(C(=O)Nc3c(C)cccc3Cl)s2)cc(N2CCN(CCO)CC2)n1 [Dasatinib] (partner 0.075 µM)
# Summary of the method: as §1
# PAC-1 + Phenformin = compound: C=CCc1cccc(/C=N/NC(=O)CN2CCN(Cc3ccccc3)CC2)c1O [PAC-1] + N=C(N)NC(=N)NCCc1ccccc1 [Phenformin] (partner 250 µM)
# Summary of the method: as §1
# PAC-1 + Olaparib = compound: C=CCc1cccc(/C=N/NC(=O)CN2CCN(Cc3ccccc3)CC2)c1O [PAC-1] + O=C(c1cc(Cc2n[nH]c(=O)c3ccccc23)ccc1F)N1CCN(C(=O)C2CC2)CC1 [Olaparib] (partner 8 µM)
# Summary of the method: as §1
Cell Line,relative viability (Ibrutinib + Trametinib; first compound 0.005 µM),relative viability (Ibrutinib + Trametinib; first compound 0.01581 µM),relative viability (Ibrutinib + Trametinib; first compound 0.05 µM),relative viability (Ibrutinib + Trametinib; first compound 0.1581 µM),relative viability (Ibrutinib + Trametinib; first compound 0.5 µM),relative viability (BMX-IN-1 + Dasatinib; first compound 0.02 µM),relative viability (BMX-IN-1 + Dasatinib; first compound 0.2 µM),relative viability (BMX-IN-1 + Dasatinib; first compound 0.6325 µM),relative viability (BMX-IN-1 + Dasatinib; first compound 2 µM),relative viability (PAC-1 + Phenformin; first compound 0.02 µM),relative viability (PAC-1 + Phenformin; first compound 0.06325 µM),relative viability (PAC-1 + Phenformin; first compound 0.2 µM),relative viability (PAC-1 + Phenformin; first compound 2 µM),relative viability (PAC-1 + Olaparib; first compound 0.02 µM),relative viability (PAC-1 + Olaparib; first compound 0.06325 µM),relative viability (PAC-1 + Olaparib; first compound 0.2 µM),relative viability (PAC-1 + Olaparib; first compound 2 µM)
NCI-H460,0.133,0.0919,0.195,0.13,0.152,0.621,0.682,0.679,0.494,0.503,0.528,0.483,0.575,0.4,0.457,0.466,0.369
NCI-H358,0.102,0.194,–,0.138,0.116,0.166,0.145,0.176,0.135,0.305,0.314,0.269,0.374,0.581,0.827,0.569,0.37
NCI-H596,0.821,0.688,0.808,0.826,0.874,0.66,0.618,0.674,0.672,0.739,1.03,0.783,0.785,0.633,0.715,0.607,0.665
NCI-H322M,0.466,0.457,0.532,0.519,0.508,0.261,0.251,0.262,0.256,0.716,0.819,0.776,0.762,0.762,0.782,0.74,0.834
H3255,0.461,0.531,–,0.624,0.378,0.363,0.394,0.397,0.33,0.398,0.394,0.334,0.308,0.64,0.579,0.536,0.515
COR-L23,0.393,0.574,0.621,0.647,0.756,0.523,0.544,0.594,0.528,0.458,0.434,0.423,0.429,0.308,0.334,–,0.379
NCI-H2126,0.5,0.474,0.522,0.559,0.466,0.624,0.645,0.616,0.601,0.515,0.524,0.517,0.513,0.896,0.871,0.941,0.886
NCI-H1993,0.487,0.571,0.518,0.617,0.398,0.659,0.703,0.479,0.634,0.42,0.513,0.595,0.498,1.12,1.16,0.684,0.961
NCI-H1915,0.324,0.295,0.28,0.292,0.283,0.351,0.338,0.411,0.302,0.364,0.358,0.345,0.365,0.234,0.262,0.22,0.274
NCI-H727,0.463,0.4,0.398,0.37,0.388,0.438,0.339,0.479,0.444,0.463,0.682,0.565,0.52,0.753,0.715,0.568,0.68
NCI-H1734,0.636,0.67,0.677,0.596,0.618,0.463,0.504,0.476,0.467,0.366,0.36,0.373,0.388,0.655,0.611,0.271,0.632
A-427,0.654,0.777,0.782,–,0.694,0.731,1.01,0.782,0.664,0.328,0.384,0.338,0.279,0.786,0.776,0.666,0.711
NCI-H2170,0.806,0.744,0.637,0.955,0.184,0.609,0.634,0.67,0.586,0.426,0.356,0.422,0.384,0.557,0.632,0.562,0.542
NCI-H1437,0.53,0.51,0.555,0.491,0.624,0.512,0.391,0.429,0.409,0.302,0.275,0.264,0.339,0.606,0.632,0.555,0.471
PC-3 [JPC-3],0.617,0.592,0.617,0.754,0.456,1,1.19,1.07,0.943,0.484,0.468,0.461,0.489,1.04,1.15,1.1,1.09
NCI-H2342,0.801,0.873,0.659,0.773,0.676,0.31,0.326,0.307,0.327,0.552,0.474,0.579,0.611,0.442,0.474,0.367,0.525
201T,0.721,0.708,0.695,0.712,0.683,0.659,0.681,0.687,0.567,0.43,0.47,0.468,0.453,0.817,0.859,0.857,0.818
PC-14,0.735,0.647,0.643,0.818,0.254,0.313,0.227,0.339,0.279,0.59,0.683,0.727,0.633,0.255,0.275,0.288,0.298
